Test results published in PubChem BioAssay AID192 (DTP/NCI, 2004).
Values joined by “and” are separate entries in the source; they are usually repeats but may differ in a detail not shown here. Equal values may be shown once. Inconclusive results and toxic doses are left out.

Test system: BDF1 mice, B16 melanoma ip, median survival T/C
Test: NCI In Vivo Anticancer Drug Screen. Data for tumor model B16 Melanoma (intraperitoneal) in B6D2F1 (BDF1) mice
Conditions: endpoint: median survival time, higher = longer survival
Outline: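 The ratio T/C compares compound-treated mice with vehicle-treated controls, using survival or tumor size as the endpoint in a transplantable tumor model.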

[1] = dose: 50.0 mg/kg/injection, schedule: Q01DX009 (ip), vehicle: Klucel (hydroxypropylcellulose) (HPC)
[2] = dose: 100.0 mg/kg/injection, schedule: Q01DX009 (ip), vehicle: Klucel (hydroxypropylcellulose) (HPC)
[3] = dose: 200.0 mg/kg/injection, schedule: Q01DX009 (ip), vehicle: Klucel (hydroxypropylcellulose) (HPC)
[4] = dose: 100.0 mg/kg/injection, schedule: Q01DX009 (ip), vehicle: saline
[5] = dose: 200.0 mg/kg/injection, schedule: Q01DX009 (ip), vehicle: saline
[6] = dose: 100.0 mg/kg/injection, schedule: Q01DX009 (ip), vehicle: saline with Tween-80
[7] = dose: 200.0 mg/kg/injection, schedule: Q01DX009 (ip), vehicle: saline with Tween-80
[8] = dose: 50.0 mg/kg/injection, schedule: Q01DX009 (ip), vehicle: saline with Tween-80
[9] = dose: 25.0 mg/kg/injection, schedule: Q01DX009 (ip), vehicle: saline
[10] = dose: 50.0 mg/kg/injection, schedule: Q01DX009 (ip), vehicle: saline
[11] = dose: 25.0 mg/kg/injection, schedule: Q01DX009 (ip), vehicle: saline with Tween-80
[12] = dose: 6.25 mg/kg/injection, schedule: Q01DX009 (ip), vehicle: saline with Tween-80
[13] = dose: 12.5 mg/kg/injection, schedule: Q01DX009 (ip), vehicle: saline with Tween-80
[14] = dose: 0.75 mg/kg/injection, schedule: Q01DX009 (ip), vehicle: saline

Compound: C[C@@H]1O[C@@H](O[C@H]2CC[C@]3(C=O)[C@H]4CC[C@]5(C)[C@@H](c6ccc(=O)oc6)CC[C@]5(O)[C@@H]4CC[C@]3(O)C2)[C@H](O)[C@H](O)[C@H]1O[C@@H]1O[C@H](CO)[C@@H](O)[C@H](O)[C@H]1O
- T/C (dose: 0.63 mg/kg/injection, schedule: Q01DX009 (ip), vehicle: saline): 102 % of control
- T/C (dose: 1.25 mg/kg/injection, schedule: Q01DX009 (ip), vehicle: saline): 92 % of control
- T/C (dose: 2.5 mg/kg/injection, schedule: Q01DX009 (ip), vehicle: saline): 90 % of control

Compound: COC1CC(C)C(OC)c2cc(O)cc(c2O)NC(=O)/C(C)=C/C=C\C(C)C(OC(N)=O)/C(C)=C\C(C)C1OC (stereo unspecified)
- T/C (dose: 2.5 mg/kg/injection, schedule: Q01DX009 (ip), vehicle: Klucel (hydroxypropylcellulose) (HPC)): 176 % of control and 187 % of control
- T/C (dose: 5.0 mg/kg/injection, schedule: Q01DX009 (ip), vehicle: Klucel (hydroxypropylcellulose) (HPC)): 177 % of control and 208 % of control
- T/C (dose: 5.0 mg/kg/injection, schedule: Q01DX009 (ip), vehicle: saline + alcohol): 242 % of control

Compound: C1CCC2[N-]CC3CCCCC3[N-]CC3CCCCC3[N-]CC3CCCCC3[N-]CC2C1.[Cu] (stereo unspecified)
- T/C (dose: 1.56 mg/kg/injection, schedule: Q01DX009 (ip), vehicle: Klucel (hydroxypropylcellulose) (HPC)): 123 % of control
- T/C (dose: 3.12 mg/kg/injection, schedule: Q01DX009 (ip), vehicle: Klucel (hydroxypropylcellulose) (HPC)): 156 % of control

Compound: O=S(=O)(F)c1cc(C[P+](c2ccccc2)(c2ccccc2)c2ccccc2)ccc1Cl
- T/C (dose: 0.1 mg/kg/injection, schedule: Q01DX009 (ip), vehicle: saline with Tween-80): 105 % of control
- T/C (dose: 0.1 mg/kg/injection, schedule: Q04DX003 (ip), vehicle: saline with Tween-80): 112 % of control
- T/C (dose: 0.2 mg/kg/injection, schedule: Q01DX009 (ip), vehicle: saline with Tween-80): 90 % of control
- T/C (dose: 0.2 mg/kg/injection, schedule: Q04DX003 (ip), vehicle: saline with Tween-80): 110 % of control
- T/C (dose: 0.4 mg/kg/injection, schedule: Q01DX009 (ip), vehicle: saline with Tween-80): 100 % of control
- T/C (dose: 0.4 mg/kg/injection, schedule: Q04DX003 (ip), vehicle: saline with Tween-80): 110 % of control
- T/C (dose: 3.0 mg/kg/injection, schedule: Q04DX003 (ip), vehicle: saline with Tween-80): 86 % of control
- T/C (dose: 12.5 mg/kg/injection, schedule: Q04DX003 (ip), vehicle: saline with Tween-80): 86 % of control

Compound: C#CC(C)(O)c1ccccc1 (stereo unspecified)
- T/C [1]: 100 % of control
- T/C [2]: 100 % of control
- T/C [3]: 103 % of control

Compound: CCCCCCCCC(=O)NCCOC
- T/C [1]: 104 % of control
- T/C [2]: 101 % of control
- T/C [3]: 101 % of control

Compound: Cn1c(=O)c2c(ncn2CCO)n(C)c1=O
- T/C [4]: 120 % of control
- T/C [5]: 122 % of control

Compound: COc1cc2c(cc1OC)C(CN)C2 (stereo unspecified)
- T/C [1]: 94 % of control
- T/C [2]: 97 % of control

Compound: COc1ccc(C(=O)C(C)Br)c(OCc2ccccc2)c1OC (stereo unspecified)
- T/C [6]: 95 % of control
- T/C (dose: 100.0 mg/kg/injection, schedule: Q04DX003 (ip), vehicle: saline with Tween-80): 94 % of control
- T/C [7]: 87 % of control
- T/C (dose: 200.0 mg/kg/injection, schedule: Q04DX003 (ip), vehicle: saline with Tween-80): 100 % of control
- T/C (dose: 400.0 mg/kg/injection, schedule: Q04DX003 (ip), vehicle: saline with Tween-80): 97 % of control

Compound: CCNc1nc(Cl)nc(NC(C)C)n1
- T/C [8]: 100 % of control
- T/C [6]: 102 % of control
- T/C [7]: 104 % of control

Compound: CCC(CC)(CO)CO
- T/C [9]: 92 % of control
- T/C [10]: 102 % of control
- T/C [4]: 104 % of control
- T/C [5]: 107 % of control
- T/C (dose: 400.0 mg/kg/injection, schedule: Q01DX009 (ip), vehicle: saline): 97 % of control

Compound: CCCCCC[N+](CCCCCC)(CCCCCC)CCCCCC
- T/C (dose: 0.75 mg/kg/injection, schedule: Q01DX009 (ip), vehicle: Klucel (hydroxypropylcellulose) (HPC)): 88 % of control
- T/C (dose: 1.5 mg/kg/injection, schedule: Q01DX009 (ip), vehicle: Klucel (hydroxypropylcellulose) (HPC)): 90 % of control

Compound: O=C(O)c1cccc(S(=O)(=O)N(CCO)CCO)c1
- T/C (dose: 12.5 mg/kg/injection, schedule: Q01DX009 (ip), vehicle: saline): 95 % of control
- T/C [9]: 97 % of control
- T/C [8]: 91 % of control
- T/C [10]: 92 % of control

Compound: Cc1ccc2no[n+]([O-])c2c1[N+](=O)[O-]
- T/C [11]: 93 % of control
- T/C [8]: 97 % of control
- T/C [6]: 98 % of control

Compound: C[n+]1c(-c2cccc(OCCCCCCCOc3cccc(-c4c5cc(N)ccc5c5ccc(N)cc5[n+]4C)c3)c2)c2cc(N)ccc2c2ccc(N)cc21
- T/C (dose: 0.02 mg/kg/injection, schedule: Q01DX009 (ip), vehicle: water): 95 % of control
- T/C (dose: 0.04 mg/kg/injection, schedule: Q01DX009 (ip), vehicle: water): 123 % of control

Compound: Cc1ccccc1-n1c(C)nc2ccccc2c1=O
- T/C (dose: 12.5 mg/kg/injection, schedule: Q01DX009 (ip), vehicle: Klucel (hydroxypropylcellulose) (HPC)): 92 % of control and 108 % of control
- T/C (dose: 25.0 mg/kg/injection, schedule: Q01DX009 (ip), vehicle: Klucel (hydroxypropylcellulose) (HPC)): 92 % of control
- T/C [1]: 88 % of control and 90 % of control
- T/C [2]: 88 % of control
- T/C [3]: 90 % of control

Compound: CC1(C)N=C(N)N=C(N)N1c1cccc(CCCCc2cccc(S(=O)(=O)F)c2)c1
- T/C [12]: 115 % of control
- T/C [13]: 96 % of control
- T/C [11]: 87 % of control

Compound: Cc1ccc(NC(=O)COc2ccc(Cl)cc2)cc1Cl
- T/C (dose: 3.13 mg/kg/injection, schedule: Q01DX009 (ip), vehicle: saline with Tween-80): 101 % of control
- T/C [12]: 106 % of control
- T/C [13]: 93 % of control and 101 % of control
- T/C [11]: 87 % of control
- T/C [8]: 96 % of control

Compound: CC(=O)NC(CO)C(=O)c1ccc(S(=O)(=O)c2ccccc2)cc1 (stereo unspecified)
- T/C [6]: 102 % of control
- T/C [7]: 93 % of control

Compound: Cc1cc(C)nc(NC(N)=NCCc2ccccc2)n1
- T/C [13]: 104 % of control
- T/C [11]: 88 % of control
- T/C [8]: 97 % of control

Compound: O=C(Cn1cc(F)c(=O)[nH]c1=O)c1ccco1
- T/C [1]: 94 % of control
- T/C [2]: 100 % of control
- T/C [3]: 94 % of control

Compound: O=C1CC(c2ccc(OCN(CCCl)CCCl)cc2)CC(=O)C1CN(CCCl)CCCl (stereo unspecified)
- T/C (dose: 0.5 mg/kg/injection, schedule: Q01DX009 (ip), vehicle: Klucel (hydroxypropylcellulose) (HPC)): 97 % of control
- T/C (dose: 1.0 mg/kg/injection, schedule: Q01DX009 (ip), vehicle: Klucel (hydroxypropylcellulose) (HPC)): 100 % of control
- T/C (dose: 2.0 mg/kg/injection, schedule: Q01DX009 (ip), vehicle: Klucel (hydroxypropylcellulose) (HPC)): 100 % of control
- T/C (dose: 4.0 mg/kg/injection, schedule: Q01DX009 (ip), vehicle: Klucel (hydroxypropylcellulose) (HPC)): 99 % of control
- T/C (dose: 8.0 mg/kg/injection, schedule: Q01DX009 (ip), vehicle: Klucel (hydroxypropylcellulose) (HPC)): 104 % of control

Compound: CC12CCC3C(CCC4CC(OC(=O)Cc5ccc(N(CCCl)CCCl)cc5)CCC43C)C1CCC(=O)N2 (stereo unspecified)
- T/C [14]: 113 % of control
- T/C (dose: 1.5 mg/kg/injection, schedule: Q01DX009 (ip), vehicle: saline with Tween-80): 110 % of control
- T/C (dose: 1.5 mg/kg/injection, schedule: Q01DX009 (ip), vehicle: saline): 121 % of control
- T/C (dose: 3.0 mg/kg/injection, schedule: Q01DX009 (ip), vehicle: saline): 121 % of control
- T/C (dose: 12.0 mg/kg/injection, schedule: Q01DX009 (ip), vehicle: saline): 154 % of control

Compound: CC(C)(C)C1CCC(C(=O)O)CC1 (stereo unspecified)
- T/C [8]: 95 % of control
- T/C [6]: 90 % of control
- T/C [7]: 90 % of control

Compound: NC(=O)c1cn(C2OC(CO)C(O)C2O)c2ncnc(N)c12 (stereo unspecified)
- T/C (dose: 0.09 mg/kg/injection, schedule: Q01DX009 (ip), vehicle: saline): 100 % of control
- T/C (dose: 0.12 mg/kg/injection, schedule: Q01DX009 (ip), vehicle: water): 93 % of control
- T/C (dose: 0.13 mg/kg/injection, schedule: Q01DX009 (ip), vehicle: saline): 97 % of control
- T/C (dose: 0.19 mg/kg/injection, schedule: Q01DX009 (ip), vehicle: saline): 105 % of control
- T/C (dose: 0.25 mg/kg/injection, schedule: Q01DX009 (ip), vehicle: saline): 102 % of control
- T/C (dose: 0.25 mg/kg/injection, schedule: Q01DX009 (ip), vehicle: water): 106 % of control
- T/C (dose: 0.38 mg/kg/injection, schedule: Q01DX009 (ip), vehicle: saline): 105 % of control
- T/C (dose: 0.5 mg/kg/injection, schedule: Q01DX009 (ip), vehicle: saline): 102 % of control
- T/C [14]: 114 % of control

Compound: CC1CCCCC1NC(=O)NCCOC(=O)OCCNC(=O)NC1CCCCC1C (stereo unspecified)
- T/C [6]: 97 % of control
- T/C [7]: 95 % of control
- T/C (dose: 400.0 mg/kg/injection, schedule: Q01DX009 (ip), vehicle: saline with Tween-80): 97 % of control
